# According to patent US9056867B2, “N-substituted heterocyclyl carboxamides” (NOVARTIS AG, priority 2011, dated 2015):
# Molecular target: T1, ΔF508-CFTR channel (Homo sapiens, UniProt P13569, DEL508-508)
# T1 construct: expressed in transfected cells
# Experiment: CFTR potentiator assays (membrane potential assay, IonWorks Quattro assay, ion transport assay); the patent does not say which one gave the values
# Assay type: cell-based
# Conditions: cells stably expressing ΔF508-CFTR, forskolin present; values given in μM; read-out: Ki values in the data measurements described above
# From the text: CFTR activity can be quantified by measuring the transmembrane potential. The means for measuring the transmembrane potential in a biological system can employ a number of methods including electrophysiological and optical fluoresence-based membrane potential assays.
# The optical membrane potential assay utilises a negatively charged potentiometric dye, such as the FLIPR membrane potential dye (FMP) (see Baxter D F, Kirk M, Garcia A F, Raimondi A, Holmqvist M H, Flint K K, Bojanic D, Distefano P S, Curtis R, Xie Y. ‘A novel membrane potential-sensitive fluorescent dye improves cell-based assays for ion channels.’ J Biomol Screen. 2002 Feb.; 7(1):79-85) which when extraceullar is bound to a quenching agent. Upon cellular depolarisation the negatively charged dye redistributes to the intracellular compartment, unbinding from the membrane impermeant quench agent, yielding an increase in fluorescence. This change in fluoresence is proportional to the change in transmembrane potential which can result from the activity of CFTR. The changes in fluorescence can be monitored in real time by an appropriately equipped fluorescence detector such as the FLIPR (fluorometric imaging plate reader) in 96 or 384-well microtitre plates.
# Chinese hamster ovary (CHO) cells stably expressing the ΔF508-CFTR channel were used for membrane potential experiments. Cells were maintained at 37° C. in 5% v/v CO2 at 100% humidity in Modified Eagles medium (MEM) supplemenetd with 8% v/v foetal calf serum, 100 μg/ml methotrexate and 100 U/ml penicillin/streptomycin. Cells were grown in 225 cm^2 tissue culture flasks. For membrane potential assays cells were seeded into 96 well plates at 40,000 cells per well, allowed to adhere and then maintained at 26° C. for 48 h to facilitate channel insertion.
# The membrane potential screening assay utilised a low chloride ion containing extraceullular solution (˜5 mM) combined with a double addition protocol. The first addition was of buffer with or without test compound followed 5 minutes later by an addition of forskolin (1-20 μM)—this protocol favours maximum chloride efflux in response to ΔF508-CFTR activation. The ΔF508-CFTR mediated chloride ion efflux leads to a membrane depolarisation which is optically monitoried by the FMP dye.
# Low chloride extracellular (mM): 120 Na-gluconate, 1.2 CaCl2, 3.3 KH2PO4, 0.8 K2HPO4, 1.2 MgCl2, 10.0 D-glucose, 20.0 HEPES, pH 7.4 with NaOH
# FMP dye: made up as per manufacuturers instructions in low chloride extracellular solution detailed above, at 10× final concentration, and stored as 1 mL aliquots at −20° C.
# CFTR activity can also be quantified electrophysiologically using the whole-cell configuration of the patch clamp technique (Hamill et al Pflugers Acrhive 1981). This assay directly measures the currents associated with chloride flow through CFTR channels whilst either maintaining or adjusting the transmembrane voltage. This assay can use either single glass micropipettes or parallel planar arrays to measure CFTR activity from native or recombinant cell systems. Currents measured using parallel planar arrays can be quantified using an appropriately equipped instrument such as the IonWorks Quattro (Molecular Devices) or the Qpatch (Sophion). The Quattro system can measure CFTR currents from either a single cell per recording well (HT configuration) or alternatively from a population of 64 cells per well (Population Patch Clamp PPC) (Finkel A, Wittel A, Yang N, Handran S, Hughes J, Costantin J. ‘Population patch clamp improves data consistency and success rates in the measurement of ionic currents.’ J Biomol Screen. 2006 Aug.; 11(5):488-96).
# Chinese hamster ovary (CHO) cells stably expressing the ΔF508-CFTR channel were used for IonWorks Quattro experiments. […]
# T1 sequence (P13569 with tags, fused parts or gaps DEL508-508): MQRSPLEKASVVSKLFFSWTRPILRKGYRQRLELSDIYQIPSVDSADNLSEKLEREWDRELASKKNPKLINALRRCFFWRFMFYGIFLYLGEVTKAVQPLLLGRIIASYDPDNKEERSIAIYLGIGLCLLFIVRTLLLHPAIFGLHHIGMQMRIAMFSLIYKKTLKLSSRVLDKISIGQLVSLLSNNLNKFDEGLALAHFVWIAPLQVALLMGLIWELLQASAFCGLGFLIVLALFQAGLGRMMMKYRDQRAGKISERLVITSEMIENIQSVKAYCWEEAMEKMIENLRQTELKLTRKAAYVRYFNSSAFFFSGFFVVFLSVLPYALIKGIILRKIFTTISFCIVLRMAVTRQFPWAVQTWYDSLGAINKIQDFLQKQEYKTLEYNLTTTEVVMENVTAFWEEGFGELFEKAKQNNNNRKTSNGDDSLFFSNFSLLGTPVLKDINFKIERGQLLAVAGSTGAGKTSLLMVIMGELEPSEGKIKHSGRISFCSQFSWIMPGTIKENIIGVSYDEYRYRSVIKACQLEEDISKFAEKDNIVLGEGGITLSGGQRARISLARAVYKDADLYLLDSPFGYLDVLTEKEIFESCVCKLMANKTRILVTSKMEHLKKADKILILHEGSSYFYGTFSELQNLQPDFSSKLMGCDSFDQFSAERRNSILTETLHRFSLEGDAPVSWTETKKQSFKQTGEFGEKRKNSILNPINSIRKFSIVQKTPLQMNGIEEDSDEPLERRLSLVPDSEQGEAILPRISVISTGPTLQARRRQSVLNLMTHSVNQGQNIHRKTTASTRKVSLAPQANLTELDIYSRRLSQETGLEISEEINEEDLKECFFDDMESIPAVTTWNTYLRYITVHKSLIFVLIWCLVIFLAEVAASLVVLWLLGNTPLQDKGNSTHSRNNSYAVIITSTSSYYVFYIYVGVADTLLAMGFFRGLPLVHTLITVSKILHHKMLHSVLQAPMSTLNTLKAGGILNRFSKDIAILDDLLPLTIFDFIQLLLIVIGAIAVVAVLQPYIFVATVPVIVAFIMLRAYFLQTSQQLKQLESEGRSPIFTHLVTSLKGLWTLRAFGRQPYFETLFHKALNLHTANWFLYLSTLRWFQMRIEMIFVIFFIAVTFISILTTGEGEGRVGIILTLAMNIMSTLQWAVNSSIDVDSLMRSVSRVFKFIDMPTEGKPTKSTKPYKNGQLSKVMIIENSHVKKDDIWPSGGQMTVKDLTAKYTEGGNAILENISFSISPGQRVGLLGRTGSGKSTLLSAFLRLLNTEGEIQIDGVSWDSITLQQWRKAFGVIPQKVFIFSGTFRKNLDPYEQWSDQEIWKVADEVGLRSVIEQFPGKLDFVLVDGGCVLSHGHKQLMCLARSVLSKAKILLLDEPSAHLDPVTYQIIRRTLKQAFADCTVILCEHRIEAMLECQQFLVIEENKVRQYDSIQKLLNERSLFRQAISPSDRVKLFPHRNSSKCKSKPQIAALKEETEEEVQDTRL
row,Ki,Structure (SMILES)
1,1.55 µM,"Nc1nc(C(F)(F)F)c(Br)nc1C(=O)Nc1[nH]ncc1-c1ccccn1 [Example 19, 3-Amino-6-bromo-N-(4-(pyridin-2-yl)-1H-pyrazol-5-yl)-5-(trifluoromethyl)pyrazine-2-carboxamide]"
2,0.02 µM,"Nc1nc(C(F)(F)F)c(Br)nc1C(=O)Nc1nc(Cc2ccccc2)n[nH]1 [Example 24, 3-Amino-N-(3-benzyl-1H-1,2,4-triazol-5-yl)-6-bromo-5-(trifluoromethyl)pyrazin-2-carboxamide]"
3,0.004 µM,"Nc1cc(C(F)(F)F)c(Br)nc1C(=O)Nc1n[nH]c2nccnc12 [Example 18, 3-Amino-6-bromo-N-(1H-pyrazolo[4,3-b]pyrazin-3-yl)-5-(trifluoromethyl)picolinamide]"
4,0.255 µM,"Nc1nc(C(F)(F)F)c(Cl)nc1C(=O)Nc1ccn[nH]1 [Example 14, 3-Amino-6-chloro-5-trifluoromethyl-pyrazine-2-carboxylic acid (2H-pyrazole-3-yl)amide]"
5,0.01 µM,"Nc1cc(C(F)(F)F)c(Br)nc1C(=O)Nc1ccn[nH]1 [Example 7, 3-Amino-6-bromo-5-trifluoromethyl-pyridine-2-carboxylic acid (2H-pyrazol-3-yl)-amide]"
6,0.16 µM,"Cc1nnc(-c2ccc(-c3nc(C(=O)Nc4ccn[nH]4)c(N)cc3C(F)(F)F)cc2)o1 [Example 26.3, 3-Amino-6-[4-(5-methyl-[1,3,4]oxadiazol-2-yl)-phenyl]-5-trifluoromethyl-pyridine-2-carboxylic acid (2H-pyrazol-3-yl)-amide]"
7,0.025 µM,"Nc1cc(C(F)(F)F)c(Cl)nc1C(=O)Nc1ccn[nH]1 [Example 22, 3-Amino-6-chloro-N-(1H-pyrazol-5-yl)-5-(trifluoromethyl)picolinamide]"
8,0.07 µM,"Nc1cc(C(F)(F)F)c(Br)nc1C(=O)Nc1cc(C(F)(F)F)n[nH]1 [Example 5, 3-Amino-6-bromo-5-trifluoromethyl-pyridine-2-carboxylic acid (5-trifluoromethyl-2H-pyrazol-3-yl)-amide]"

# Same assay, conditions: cells stably expressing ΔF508-CFTR, forskolin present; values in nM; read-out: Ki values in the data measurements described above
row,Ki,Structure (SMILES)
1,0.0038 µM,"Nc1cc(C(F)(F)F)c(-c2ccc(F)cc2)nc1C(=O)Nc1cc[nH]n1 [Example 25.1, 3-Amino-6-(4-fluorophenyl)-N-(1H-pyrazol-3-yl)-5-(trifluoromethyl)picolinamide]"
2,0.014 µM,"COc1ncccc1-c1nc(C(=O)Nc2cc[nH]n2)c(N)cc1C(F)(F)F [Example 25.3, 5-Amino-2′-methoxy-3-trifluoro methyl-[2,3′]bipyridinyl-6-carboxylic acid (1H-pyrazol-3-yl)-amide]"
3,0.019 µM,"Cc1cn[nH]c1NC(=O)c1nc(C(F)(F)F)c(C(F)(F)F)nc1N [Example 27, 3-Amino-5,6-bis-trifluoromethyl-pyrazine-2-carboxylic acid (4-methyl-2H-pyrazol-3-yl)-amide]"
4,0.03 µM,"Nc1cc(C(F)(F)F)c(-c2cccc(CN3CCCC3=O)c2)nc1C(=O)Nc1ccn[nH]1 [Example 26.1, 3-Amino-6-[3-(2-oxo-pyrrolidin-1-ylmethyl)-phenyl]-5-trifluoromethyl-pyridine-2-carboxylic acid (2H-pyrazol-3-yl)-amide]"
5,0.013 µM,"Cc1cc(Cl)ccc1-c1nc(C(=O)Nc2ccn[nH]2)c(N)cc1C(F)(F)F [Example 25.2, 3-Amino-6-(4-chloro-2-methyl-phenyl)-5-trifluoro methyl-pyridine-2-carboxylic acid (2H-pyrazol-3-yl)-amide]"
6,0.045 µM,"COc1ccc(-c2nc(C(=O)Nc3ccn[nH]3)c(N)cc2C(F)(F)F)cn1 [Example 26.2, 5-Amino-6′-methoxy-3-trifluoromethyl-[2,3′]bipyridinyl-6-carboxylic acid (2H-pyrazol-3-yl)-amide]"
